This assay has as its system urease enzyme of ur(+) S. thermophilus. Kind of assay: Floating curd experiment in test tubes (Example 3). The arrangement: species or system Streptococcus thermophilus. Conditions: milk fermented at 35° C. to pH 4.65, sample heated at about 66° C. for 2 x 10 minutes; flurofamide added to the blend of Lactococci and ur(+) S. thermophilus. As for the experimental part: Four experiments were conducted in which milk was treated with various bacteria. In experiment 1, only Lactococci bacteria were added. In experiment 2, a blend of Lactococci bacteria and ur(+) S. thermophilus bacteria were added. In experiment 3, a blend of Lactococci bacteria, ur(+) S. thermophilus bacteria, and the urease inhibitor flurofamide were added. In experiment 4, only ur(+) S. thermophilus bacteria were added.
In each experiment, the milk was fermented with the bacteria at 35° C. until the cheese reached a pH of 4.65. A sample of the cheese was placed into a test tube, which was heated at about 66° C. for about 10 minutes. After 10 minutes of heating, a small pipette or thin wire was used to agitate the sample. The samples were held at about 66° C. for another ten minutes, at which time the photograph of the test tubes depicted in FIG. 3, was taken.
Test tube 4 is a positive control that contains ur(+) S. thermophilus, which has urease enzymes that can hydrolyze urea in milk.

SMILES strings stand for the structures.

For the compound `NP(N)(=O)NC(=O)c1ccc(F)cc1` [flurofamide], the “floating curd in test tube” value is given as “no floating curd”.
